Test results taken from US10927123B2, “Modulators of the beta-3 adrenergic receptor useful for the treatment or prevention of disorders related thereto” (Arena Pharmaceuticals, Inc., priority 2016, dated 2021).

Target: Beta-3 Adrenergic Receptor (Homo sapiens (Human), UniProt P13945)
Assay: HTRF cAMP antagonist assay (IC50 determination)
Assay type: cell-based
Conditions: CHO-K1 cells stably expressing recombinant receptor; antagonism of isoproterenol at EC90; cAMP readout
Experimental: HTRF cAMP assays were performed according to manufacturer's instructions (Cisbio, cAMP Dynamic 2 Assay Kit; #62AM4PEJ). CHO-K1 cells stably expressing recombinant receptor were harvested and suspended in warm PBS to make a 300,000 cells/mL stock. This cell suspension was dispensed into 384 well assay plates (PerkinElmer ProxiPlate #6008280) at 5 μL per well (1500 cells/well) along with a cAMP standard curve.
Compounds were dissolved and serially diluted (5-fold) in DMSO to generate a 10-point dose response stock. The stock was then diluted 100-fold in assay buffer (PBS containing 1 mM IBMX) before a volume of 2.5 μL was added to the cells (the final, top concentration of compound in the dose-response is typically 10 or 100 μM). After a brief incubation, 2.5 μL of isoproterenol stock, prepared at a concentration 4 times its EC90 at the receptor of interest, was added to the wells. The EC90 for isoproterenol, a beta-adrenergic agonist, was determined in separate experiments using standard methods to measure agonist potencies.
Following a 1-hour incubation at room temperature, 5 μL of cAMP-D2 Reagent diluted in Lysis Buffer was added to each well followed by 5 μL of Cryptate Reagent. Plates were further incubated at room temperature for 1 hour prior to reading. Time resolved fluorescence measurements were collected on a suitable, HTRF-capable plate reader.
Counts from the plate reader were fit to the cAMP standard curve on the assay plate in order to determine cAMP concentrations in each well, and these values were used to construct dose-response curves to obtain IC50 values.

Chain of Beta-3 Adrenergic Receptor (P13945 whole entry, species assumed): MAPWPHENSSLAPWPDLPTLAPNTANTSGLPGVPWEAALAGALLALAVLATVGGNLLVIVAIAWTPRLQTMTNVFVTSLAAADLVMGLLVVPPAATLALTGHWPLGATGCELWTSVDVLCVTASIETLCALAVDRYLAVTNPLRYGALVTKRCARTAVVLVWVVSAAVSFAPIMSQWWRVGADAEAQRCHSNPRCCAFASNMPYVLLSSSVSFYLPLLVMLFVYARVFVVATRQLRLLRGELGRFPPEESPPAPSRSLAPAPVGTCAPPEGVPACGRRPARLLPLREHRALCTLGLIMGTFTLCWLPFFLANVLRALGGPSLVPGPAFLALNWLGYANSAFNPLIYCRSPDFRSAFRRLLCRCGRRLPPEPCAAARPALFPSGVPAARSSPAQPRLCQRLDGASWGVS

| SMILES | IC50 |
| --- | --- |
| CS(=O)(=O)c1cccc(OC[C@H](O)CN[C@@H]2COC3(CCN(S(=O)(=O)c4ccc5ccccc5c4)CC3)C2)c1 [Compound 33, (R)-1-(3-(methylsulfonyl)phenoxy)-3-((S)-8-(naphthalen-2-ylsulfonyl)-1-oxa-8-azaspiro[4.5]decan-3-ylamino)propan-2-ol] | 0.189 µM |
| O=S(=O)(CCO)c1cccc(OC[C@@H](O)CN[C@@H]2COC3(CCN(S(=O)(=O)c4ccc5ccccc5c4)CC3)C2)c1 [Compound 34, (S)-1-(3-(2-hydroxyethylsulfonyl)phenoxy)-3-((S)-8-(naphthalen-2-ylsulfonyl)-1-oxa-8-azaspiro[4.5]decan-3-ylamino)propan-2-ol] | 0.0312 µM |
| O=S(=O)(CCO)c1cccc(OC[C@@H](O)CN[C@H]2COC3(CCN(S(=O)(=O)c4ccc5ccccc5c4)CC3)C2)c1 [Compound 35, (S)-1-(3-(2-hydroxyethylsulfonyl)phenoxy)-3-((R)-8-(naphthalen-2-ylsulfonyl)-1-oxa-8-azaspiro[4.5]decan-3-ylamino)propan-2-ol] | 0.0203 µM |
| CCn1cc(-c2cccc(S(=O)(=O)N3CCC4(CC3)CC(NC[C@H](O)COc3cccc(S(C)(=O)=O)c3)CO4)c2)cn1 (stereo partly drawn) [Compound 36, (2S)-1-(8-(3-(1-ethyl-1H-pyrazol-4-yl)phenylsulfonyl)-1-oxa-8-azaspiro[4.5]decan-3-ylamino)-3-(3-(methylsulfonyl)phenoxy)propan-2-ol] | 0.0215 µM |
| CS(=O)(=O)c1cccc(OC[C@@H](O)CNC2COC3(CCN(S(=O)(=O)c4cccc(-c5cn[nH]c5)c4)CC3)C2)c1 (stereo partly drawn) [Compound 37, (2S)-1-(8-(3-(1H-pyrazol-4-yl)phenylsulfonyl)-1-oxa-8-azaspiro[4.5]decan-3-ylamino)-3-(3-(methylsulfonyl)phenoxy)propan-2-ol] | 0.00937 µM |
| CCCn1cc(-c2cccc(S(=O)(=O)N3CCC4(CC3)CC(NC[C@H](O)COc3cccc(S(C)(=O)=O)c3)CO4)c2)cn1 (stereo partly drawn) [Compound 38, (2S)-1-(3-(methylsulfonyl)phenoxy)-3-(8-(3-(1-propyl-1H-pyrazol-4-yl)phenylsulfonyl)-1-oxa-8-azaspiro[4.5]decan-3-ylamino)propan-2-ol] | 0.00399 µM |
| CS(=O)(=O)c1cccc(OC[C@@H](O)CNC2COC3(CCN(S(=O)(=O)c4cccc(-c5cnn(C6CC6)c5)c4)CC3)C2)c1 (stereo partly drawn) [Compound 39, (2S)-1-(8-(3-(1-cyclopropyl-1H-pyrazol-4-yl)phenylsulfonyl)-1-oxa-8-azaspiro[4.5]decan-3-ylamino)-3-(3-(methylsulfonyl)phenoxy)propan-2-ol] | 0.0708 µM |
| Cn1cc(-c2cccc(S(=O)(=O)N3CCC4(CC3)CC(NC[C@H](O)COc3cccc(S(C)(=O)=O)c3)CO4)c2)cn1 (stereo partly drawn) [Compound 40, (2S)-1-(8-(3-(1-methyl-1H-pyrazol-4-yl)phenylsulfonyl)-1-oxa-8-azaspiro[4.5]decan-3-ylamino)-3-(3-(methylsulfonyl)phenoxy)propan-2-ol] | 0.0203 µM |
| CS(=O)(=O)c1cccc(OC[C@@H](O)CNC2COC3(CCN(S(=O)(=O)c4cccc(-c5ccc(CN)cc5)c4)CC3)C2)c1 (stereo partly drawn) [Compound 41, (2S)-1-(8-(4′-(aminomethyl)biphenyl-3-ylsulfonyl)-1-oxa-8-azaspiro[4.5]decan-3-ylamino)-3-(3-(methylsulfonyl)phenoxy)propan-2-ol] | 0.0137 µM |
| CS(=O)(=O)c1cccc(OC[C@@H](O)CNC2COC3(CCN(S(=O)(=O)c4cccc(-c5ccc(S(N)(=O)=O)cc5)c4)CC3)C2)c1 (stereo partly drawn) [Compound 42, 3′-(3-((S)-2-hydroxy-3-(3-(methylsulfonyl)phenoxy)propylamino)-1-oxa-8-azaspiro[4.5]decan-8-ylsulfonyl)biphenyl-4-sulfonamide] | 0.0187 µM |
| CS(=O)(=O)c1cccc(OC[C@@H](O)CNC2COC3(CCN(S(=O)(=O)c4cccc(-c5ccncc5)c4)CC3)C2)c1 (stereo partly drawn) [Compound 43, (2S)-1-(3-(methylsulfonyl)phenoxy)-3-(8-(3-(pyridin-4-yl)phenylsulfonyl)-1-oxa-8-azaspiro[4.5]decan-3-ylamino)propan-2-ol] | 0.0324 µM |
